Laboratory results taken from article PMC9065575, “Synthesis, computational studies, antimycobacterial and antibacterial properties of pyrazinoic acid–isoniazid hybrid conjugates” (RSC Advances, 2019).
Values joined by “and” are separate entries in the source; they are usually repeats but may differ in a detail not shown here. Equal entries are not always repeated. Where two headings read alike, the source gives them in different places.

Columns and labels:
Mycobacterium fortuitum = assay: microbe, parasite or virus in culture; format: cell-based; conditions: Mycolicibacterium fortuitum
[1] = system: RPE1 (normal human immortalized retinal epithelial) cell line; assay: Antiproliferative properties by MTT technique; format: cell-based; conditions: RPE1 cells, 100 μM
Description: Antiproliferative properties of the synthesized compounds were screened against RPE1 (normal human immortalized retinal epithelial) cell line to determine the toxicity/selectivity towards normal cell by the standard MTT technique.[23]
Antiproliferative properties of the synthesized compounds were tested against RPE1 (normal human immortalized retinal epithelial) cell line at 100 μM to determine the toxicity/selectivity towards normal cell by the standard MTT technique.[23]

Mycobacterium bovis = assay: microbe, parasite or virus in culture; format: cell-based; conditions: for MIC: Mycobacterium tuberculosis variant bovis, read-out: Minimum inhibitory concentration (MIC) M. bovis; for potency relative to the standard references (M. bovis MIC): vs INH and PZA
Mycobacterium marinum = assay: microbe, parasite or virus in culture; format: cell-based; conditions: clinical isolate, read-out: Minimum inhibitory concentration (MIC) M. marinum
[2] = system: M. tuberculosis Erdman strain expressing luciferase; assay: microbe, parasite or virus in culture; format: cell-based, Mycobacterium tuberculosis; conditions: for inhibition at 30 µg/mL: Mycobacterium tuberculosis, ERDMAN, 168 h, read-out: Observed % growth inhibition at 30 µg/mL
Enterococcus faecalis = assay: Aerobic antibacterial MIC, standard dilution technique; format: cell-based; conditions: clinical isolate, read-out: Minimum inhibitory concentration (MIC) Enterococcus faecalis
Text: (§1) Antibacterial properties were investigated for the synthesized compounds against a variety of Gram-positive (Staphylococcus aureus, Enterococcus faecalis) and Gram-negative (Klebsiella pneumonia, Proteus vulgaris, Pseudomonas aeruginosa) clinical isolate bacteria utilizing the standard technique.[21]

Proteus vulgaris = assay: as above; format: cell-based; conditions: clinical isolate, read-out: Minimum inhibitory concentration (MIC) Proteus vulgaris
Text: as §1

Klebsiella pneumoniae = assay: as above; format: cell-based; conditions: clinical isolate, read-out: Minimum inhibitory concentration (MIC) Klebsiella pneumoniae
Text: as §1

Staphylococcus aureus = assay: as above; format: cell-based; conditions: clinical isolate, read-out: Minimum inhibitory concentration (MIC) Staphylococcus aureus
Text: as §1

Pseudomonas aeruginosa = assay: as above; format: cell-based; conditions: clinical isolate, read-out: Minimum inhibitory concentration (MIC) Pseudomonas aeruginosa
Text: as §1

[3] = clinical isolate, observed MIC, read-out: Minimum inhibitory concentration (MIC) M. fortuitum
[4] = clinical isolate, read-out: Minimum inhibitory concentration (MIC) M. fortuitum
[5] = 30 μg mL^−1, pH 7.0, 7 days, vs untreated controls
[6] = M. fortuitum, observed values listed with the BMLR-QSAR model, read-out: Observed MIC (Table S6)
[7] = Enterococcus faecalis, value in parentheses

SMILES	MIC (Enterococcus faecalis; Enterococcus faecalis) [mg/L]	MIC (Enterococcus faecalis; [7]) [µM]	MIC (Proteus vulgaris) [mg/L]	MIC (Proteus vulgaris; value in parentheses) [µM]	MIC (Klebsiella pneumoniae) [mg/L]	MIC (Klebsiella pneumoniae; value in parentheses) [µM]	MIC (Staphylococcus aureus) [mg/L]	MIC (Staphylococcus aureus; value in parentheses) [µM]	MIC (Pseudomonas aeruginosa) [mg/L]	MIC (Pseudomonas aeruginosa; value in parentheses) [µM]	other results
O=C(NC(Cc1ccccc1)C(=O)O)c1cnccn1 (racemic) [10f, (Pyrazine-2-carbonyl)-DL-phenylalanine]	–	–	–	–	–	–	–	–	–	–	MIC (Mycobacterium fortuitum; [3]): > 73.7 µM; MIC (Mycobacterium fortuitum; [4]): > 20 mg/L; Percentage of cell proliferation ± SD [1]: 86.5 ± 4.2%; MIC (Mycobacterium bovis): > 20 µg/mL and > 73.7 µM; MIC (Mycobacterium marinum; observed MIC): 73.7 µM; MIC (Mycobacterium marinum): 20 mg/L
O=C(N[C@@H](Cc1ccccc1)C(=O)O)c1cnccn1 [10e, (Pyrazine-2-carbonyl)-L-phenylalanine]	–	–	–	–	–	–	–	–	–	–	MIC (Mycobacterium fortuitum; [3]): > 73.7 µM; MIC (Mycobacterium fortuitum; [4]): > 20 mg/L; Percentage of cell proliferation ± SD [1]: 90.4 ± 3.3%; MIC (Mycobacterium bovis): > 20 µg/mL and > 73.7 µM; MIC (Mycobacterium marinum; observed MIC): > 73.7 µM; MIC (Mycobacterium marinum): > 20 mg/L; inhibition at 30 µg/mL [2, 5]: 60.4%
CSCC[C@H](NC(=O)c1cnccn1)C(=O)NNC(=O)c1ccncc1 [12d, (S)-N-(1-(2-Isonicotinoylhydrazineyl)-4-(methylthio)-1-oxobutan-2-yl)pyrazine-2-carboxamide]	–	–	–	–	–	–	–	–	–	–	melting point: 145 to 147 °C; MIC (Mycobacterium fortuitum; [6]): 53400 µM; MIC (Mycobacterium fortuitum; [3]): 53.4 µM; MIC (Mycobacterium fortuitum; [4]): 20 mg/L; MIC (Mycobacterium bovis): > 20 µg/mL and > 53.4 µM; MIC (Mycobacterium marinum; observed MIC): 26.7 µM; MIC (Mycobacterium marinum): 10 mg/L
NC(=O)c1cnccn1 [C00001]	0.12	0.97	8	65	64	520	1020	8320	4	32.5	–
NNC(=O)c1ccncc1 [C00002]	16	117	64	467	8	58.3	64	467	64	467	–
CC(C)C[C@H](NC(=O)c1cnccn1)C(=O)O [C00004]	0.03	0.13	8	33.7	64	270	1020	4320	0.03	0.13	–
CC(C)[C@H](NC(=O)c1cnccn1)C(=O)O [C00005]	0.03	–	0.06	0.27	0.03	0.13	512	2290	4	17.9	–
CC[C@@H](C)[C@H](NC(=O)c1cnccn1)C(=O)O [C00006]	0.03	0.13	0.06	0.25	8	33.7	16	67.4	0.12	0.51	–
CSCC[C@H](NC(=O)c1cnccn1)C(=O)O [C00007]	0.03	0.12	0.06	0.24	64	251	16	62.7	0.12	0.47	–
O=C(N[C@@H](Cc1ccccc1)C(=O)O)c1cnccn1 [C00008]	0.12	0.44	0.06	0.22	64	236	64	236	0.12	0.44	–
O=C(NC(Cc1ccccc1)C(=O)O)c1cnccn1 (stereo not drawn) [C00009]	0.03	0.11	0.06	0.22	16	59	16	59	16	59	–
O=C(N[C@@H](Cc1c[nH]c2ccccc12)C(=O)O)c1cnccn1 [C00010]	0.03	0.1	0.06	0.19	64	206	64	206	0.12	0.39	–
CC(C)C[C@H](NC(=O)c1cnccn1)C(=O)NNC(=O)c1ccncc1 [C00011]	0.03	0.08	0.06	0.17	4	11.2	2	5.61	64	180	–
CC(C)[C@H](NC(=O)c1cnccn1)C(=O)NNC(=O)c1ccncc1 [C00012]	0.12	–	0.06	0.18	8	23.4	16	46.7	0.12	0.35	MIC (Enterococcus faecalis; value in parentheses): 0.35 µM
CC[C@H](C)[C@H](NC(=O)c1cnccn1)C(=O)NNC(=O)c1ccncc1 [C00013]	0.03	0.08	0.06	0.17	8	22.4	16	44.9	0.12	0.34	–
CSCC[C@H](NC(=O)c1cnccn1)C(=O)NNC(=O)c1ccncc1 [C00014]	0.03	0.08	0.06	0.16	4	10.7	64	171	0.12	0.32	–
O=C(NNC(=O)[C@H](Cc1ccccc1)NC(=O)c1cnccn1)c1ccncc1 [C00015]	0.12	0.31	0.06	0.15	8	20.5	16	41	0.12	0.31	–
O=C(NNC(=O)C(Cc1ccccc1)NC(=O)c1cnccn1)c1ccncc1 (stereo not drawn) [C00016]	0.03	0.08	16	41	8	20.5	16	41	32	82	–
O=C(NNC(=O)[C@H](Cc1c[nH]c2ccccc12)NC(=O)c1cnccn1)c1ccncc1 [C00017]	0.03	0.07	0.06	0.14	4	9.31	16	37.3	0.12	0.28	–
O=C(NNC(=O)c1cnccn1)c1ccncc1 [C00018]	16	–	64	–	8	–	8	–	0.03	0.12	–
O=C(NNC(=O)c1ccncc1)c1ccncc1 [C00019]	16	–	0.03	–	4	–	4	–	0.06	0.25	–
NNC(=O)c1ccncc1 [INH, isoniazid]	–	–	–	–	–	–	–	–	–	–	MIC (Mycobacterium fortuitum; [3]): 146 µM; MIC (Mycobacterium fortuitum; [4]): 20 mg/L; MIC (Mycobacterium bovis): 146 µM and 20 µg/mL; MIC (Mycobacterium marinum; observed MIC): 72.9 µM; MIC (Mycobacterium marinum): 10 mg/L; inhibition at 30 µg/mL [2, 5]: > 70%
NC(=O)c1cnccn1 [PZA, pyrazinamide, reference compound]	–	–	–	–	–	–	–	–	–	–	MIC (Mycobacterium fortuitum; [6]): 81200 µM; MIC (Mycobacterium fortuitum; [3]): 81.2 µM; MIC (Mycobacterium fortuitum; [4]): 10 mg/L; MIC (Mycobacterium bovis): 162 µM and 20 µg/mL; MIC (Mycobacterium marinum; observed MIC): 81.2 µM; MIC (Mycobacterium marinum): 10 mg/L; Observed % growth inhibition at 30 µg/mL [2, 5]: not observed
O=C(NNC(=O)c1cnccn1)c1ccncc1 [compound 13, N′-Isonicotinoylpyrazine-2-carbohydrazide]	–	65.8	–	263	–	32.9	–	32.9	–	–	MIC (Mycobacterium fortuitum; [6]): 41100 µM; MIC (Mycobacterium fortuitum; [3]): 41.1 µM; MIC (Mycobacterium fortuitum; [4]): 10 mg/L; Percentage of cell proliferation ± SD [1]: 88.2 ± 5.1%; MIC (Mycobacterium bovis): 82.2 µM and 20 µg/mL; potency relative to the standard references (M. bovis MIC) (Mycobacterium bovis): 1.8–2.0 folds; MIC (Mycobacterium marinum; observed MIC): 41.1 µM; MIC (Mycobacterium marinum): 10 mg/L; growth inhibition at 3 μg mL^−1 ([2]; 3 μg mL^−1, pH 7.0, compared with INH (>70% at 30 μg mL^−1)): same growth inhibition; inhibition at 30 µg/mL [2, 5]: 90.1%
O=C(NNC(=O)c1ccncc1)c1ccncc1 [compound 16, N′-Isonicotinoylisonicotinohydrazide]	–	66	–	0.12	–	16.5	–	16.5	–	–	MIC (Mycobacterium fortuitum; [6]): 82600 µM; MIC (Mycobacterium fortuitum; [3]): 82.6 µM; MIC (Mycobacterium fortuitum; [4]): 20 mg/L; Percentage of cell proliferation ± SD [1]: 83.5 ± 7.4%; MIC (Mycobacterium bovis): 82.6 µM and 20 µg/mL; potency relative to the standard references (M. bovis MIC) (Mycobacterium bovis): 1.8–2.0 folds; MIC (Mycobacterium marinum; observed MIC): 82.6 µM; MIC (Mycobacterium marinum): 20 mg/L; inhibition at 30 µg/mL [2, 5]: 78.1%
